Test results published in PMC12028159, “L-Rhamnose Dehydrogenase LraA of Aspergillus niger Shows High Substrate Specificity Matching Its Expression Profile” (Journal of Fungi, 2025).

Tested on: LraA (L-rhamnose dehydrogenase)
Test: NADH formation at […] nm, Michaelis-Menten fit
Type: biochemical, Aspergillus niger
Details: NAD+ 1 mM as co-substrate, 100 mM Tris-HCl pH 8.0, 25 °C

SMILES: C[C@@H]1OC(O)[C@H](O)[C@H](O)[C@H]1O (stereo partly drawn) [L-rhamnose]
- Km: 2400 ± 900 µM
